Test results as given in US20100004267A1, “LIQUID PREPARATION” (ASUBIO PHARMA CO., LTD., priority 2006, published 2010).

What was measured:
Format in all cases: physicochemical
[1] = Examination on two-component antioxidant sodium bisulfite/L-cysteine hydrochloride monohydrate (Test example 6)
Protocol: According to the formulation of Tables 7 and 8, to 100-150 mL of purified water, sodium bisulfite (Japanese Pharmacopoeia; available from JUNSEI CHEMICAL), L-cysteine hydrochloride monohydrate (available from Nacalai Tesque), and SUN N8075 were added and dissolved in this order, and the volume was made precisely to 200 mL by addition of purified water.
After filtering under reduced pressure, the solution was bubbled with nitrogen gas for 5 minutes (not executed for the case “without nitrogen gas replacement”), and 20 mL of the solution was immediately filled into a brown ampule (Silicoat ampule, brown, 20 mL capacity, available from FUJI GLASS CO., LTD.) replaced with nitrogen gas (not executed for the case “without nitrogen gas replacement”), and then the ampule was sealed. Using autoclave (FLC-M09S30WZ, available from SAKURA SEIKI Co., Ltd.), autoclave sterilization was conducted in a setting condition: 121° C./24 minutes.
For each sample, insoluble foreign matters and odor were evaluated.
Evaluation of insoluble foreign matters was conducted using an appearance checker (under 1,000 Lux).
Also dissolved oxygen concentration in solution was measured.

[2] = Stability test based on difference of pH buffer, 6 months (Test example 4); set-up: key to Insoluble materials: ◯ means absence of insoluble matters; X: × means presence of insoluble matters
Protocol: According to experimental formulations and target pH shown in Table 4 below, liquid preparations were prepared in the following manner.
After filtering this solution under reduced pressure, 20 mL of this solution was filled into a brown ampule subjected to inner wall treatment by SiO2 glass film (Silicoat ampule; brown 20 mL-volume; available from FUJI GLASS CO., LTD.), and then the ampule was sealed. Using high-pressure steam sterilizer (autoclave), the ampule was autoclaved in a setting condition: 121° C./24 minutes.
The samples were stored at 5° C., 25° C./60% relative humidity (RH), […] were evaluated in time series until a lapse of 6 months, after evaluating presence/absence of insoluble foreign matters after autoclave sterilization. For evaluation of insoluble foreign matters, an appearance checker was used and observation was conducted under 1,000 Lux. […]
Likewise the foregoing (1) liquid preparation with acetic acid buffer system (for pH adjustment, 1 mol/L or 0.1 mol/L hydrochloric acid was used), each sample was prepared according to the experimental formulations and target pH shown in Table 4 below, and each sample was stored at 5° C., 25° C./60% relative humidity (RH), […] were evaluated in time-series until a lapse of 6 months, after evaluating presence/absence of insoluble foreign matters after autoclave sterilization. […]

[3] = Examination of properties of SUN N8075 itself; conditions: pH around neutrality
[4] = sodium bisulfite 0.05% (0.1 g), L-cysteine HCl monohydrate 0.05 g (ratio 1/2), N2 done, dissolved oxygen 0.91 ppm
[5] = sodium bisulfite 0.05% (0.1 g), L-cysteine HCl monohydrate 0.1 g (ratio 1/1), N2 done, dissolved oxygen 0.88 ppm
[6] = sodium bisulfite 0.075% (0.15 g), L-cysteine HCl monohydrate 0.1 g (ratio 2/3), N2 done, dissolved oxygen 1.66 ppm
[7] = sodium bisulfite 0.075% (0.15 g), L-cysteine HCl monohydrate 0.5 g (ratio 1/1), N2 done, dissolved oxygen 0.97 ppm
[8] = sodium bisulfite 0.1% (0.2 g), L-cysteine HCl monohydrate 0.1 g (ratio 1/2), N2 done, dissolved oxygen 1.27 ppm
[9] = sodium bisulfite […] (0.05 g), L-cysteine HCl monohydrate 0.05 g (ratio 1/1), N2 done, dissolved oxygen 0.82 ppm
[10] = acetic acid/sodium acetate buffer, Captisol 10.0%, pH at preparation 3.8 (Table 4 no. 3), 40° C./75% RH/6 months
[11] = acetic acid/sodium acetate buffer, Captisol 10.0%, pH at preparation 4.2 (Table 4 no. 4), 40° C./75% RH/6 months
[12] = glycine buffer, Captisol 7.5%, pH at preparation 3.8 (Table 4 no. 5), 40° C./75% RH/6 months
[13] = glycine buffer, Captisol 7.5%, pH at preparation 4.2 (Table 4 no. 6), 40° C./75% RH/6 months
[14] = glycine buffer, Captisol 10.0%, pH at preparation 3.8 (Table 4 no. 7), 40° C./75% RH/6 months
[15] = glycine buffer, Captisol 10.0%, pH at preparation 4.2 (Table 4 no. 8), 40° C./75% RH/6 months

Amount of insoluble matters/after sterilization ([1]; sodium bisulfite 0.05% (0.1 g), L-cysteine HCl monohydrate 0.03 g (ratio 3/10), N2 done, dissolved oxygen 1.85 ppm): bit
Amount of insoluble matters/after sterilization [1, 4]: great
Odor/After sterilization [1, 4]: Sulfur-
Amount of insoluble matters/after sterilization [1, 5]: great
Odor/After sterilization [1, 5]: Sulfur-
Amount of insoluble matters/after sterilization ([1]; sodium bisulfite 0.05% (0.1 g), no L-cysteine HCl monohydrate, N2 done, dissolved oxygen 0.82 ppm): bit
Amount of insoluble matters/after sterilization ([1]; sodium bisulfite 0.075% (0.15 g), L-cysteine HCl monohydrate 0.05 g (ratio 1/3), N2 done, dissolved oxygen 1.39 ppm): Bit
Amount of insoluble matters/after sterilization [1, 6]: great
Odor/After sterilization [1, 6]: Sulfur-
Amount of insoluble matters/after sterilization [1, 7]: great
Odor/After sterilization [1, 7]: Sulfur-
Amount of insoluble matters/after sterilization ([1]; sodium bisulfite 0.075% (0.15 g), no L-cysteine HCl monohydrate, N2 done, dissolved oxygen 1.24 ppm): bit
Amount of insoluble matters/after sterilization [1, 8]: great
Odor/After sterilization [1, 8]: Sulfur
Amount of insoluble matters/after sterilization ([1]; sodium bisulfite 0.1% (0.2 g), no L-cysteine HCl monohydrate, N2 done, dissolved oxygen 1.39 ppm): bit
Amount of insoluble matters/after sterilization ([1]; sodium bisulfite 0.1% (0.2 g), no L-cysteine HCl monohydrate, N2 not done, dissolved oxygen 5.14 ppm): bit
Amount of insoluble matters/after sterilization ([1]; sodium bisulfite […] (0.05 g), L-cysteine HCl monohydrate 0.015 g (ratio 3/10), N2 done, dissolved oxygen 1.88 ppm): Bit
Amount of insoluble matters/after sterilization [1, 9]: great
Odor/After sterilization [1, 9]: Sulfur-
Amount of insoluble matters/after sterilization ([1]; sodium bisulfite […] (0.05 g), no L-cysteine HCl monohydrate, N2 done, dissolved oxygen 0.52 ppm): bit
Insoluble materials ([2]; acetic acid/sodium acetate buffer, Captisol 7.5%, pH at preparation 3.8 (Table 4 no. 1), 5° C./6 months): ◯
Storage period at which generation of insoluble matters was observed ([2]; acetic acid/sodium acetate buffer, Captisol 7.5%, pH at preparation 3.8 (Table 4 no. 1), 25° C./60% RH): (6 months)
Insoluble materials ([2]; acetic acid/sodium acetate buffer, Captisol 7.5%, pH at preparation 3.8 (Table 4 no. 1), 25° C./60% RH/6 months): X
Insoluble materials ([2]; acetic acid/sodium acetate buffer, Captisol 7.5%, pH at preparation 3.8 (Table 4 no. 1), 40° C./60% RH/6 months): ◯
pH ([2]; acetic acid/sodium acetate buffer, Captisol 7.5%, pH at preparation 3.8 (Table 4 no. 1), 40° C./75% RH/6 months): 2.74
Insoluble materials ([2]; acetic acid/sodium acetate buffer, Captisol 7.5%, pH at preparation 3.8 (Table 4 no. 1), just after autoclave sterilization): ◯
Insoluble materials ([2]; acetic acid/sodium acetate buffer, Captisol 7.5%, pH at preparation 4.2 (Table 4 no. 2), 5° C./6 months): ◯
Insoluble materials ([2]; acetic acid/sodium acetate buffer, Captisol 7.5%, pH at preparation 4.2 (Table 4 no. 2), 25° C./60% RH/6 months): ◯
Storage period at which generation of insoluble matters was observed ([2]; acetic acid/sodium acetate buffer, Captisol 7.5%, pH at preparation 4.2 (Table 4 no. 2), 40° C./60% RH): (3 months)
Insoluble materials ([2]; acetic acid/sodium acetate buffer, Captisol 7.5%, pH at preparation 4.2 (Table 4 no. 2), 40° C./60% RH/6 months): X
pH ([2]; acetic acid/sodium acetate buffer, Captisol 7.5%, pH at preparation 4.2 (Table 4 no. 2), 40° C./75% RH/6 months): 2.96
Insoluble materials ([2]; acetic acid/sodium acetate buffer, Captisol 7.5%, pH at preparation 4.2 (Table 4 no. 2), just after autoclave sterilization): ◯
Insoluble materials ([2]; acetic acid/sodium acetate buffer, Captisol 10.0%, pH at preparation 3.8 (Table 4 no. 3), 5° C./6 months): ◯
Insoluble materials ([2]; acetic acid/sodium acetate buffer, Captisol 10.0%, pH at preparation 3.8 (Table 4 no. 3), 25° C./60% RH/6 months): ◯
Insoluble materials [2, 10]: ◯
pH [2, 10]: 2.60
Insoluble materials ([2]; acetic acid/sodium acetate buffer, Captisol 10.0%, pH at preparation 3.8 (Table 4 no. 3), just after autoclave sterilization): ◯
Insoluble materials ([2]; acetic acid/sodium acetate buffer, Captisol 10.0%, pH at preparation 4.2 (Table 4 no. 4), 5° C./6 months): ◯
Insoluble materials ([2]; acetic acid/sodium acetate buffer, Captisol 10.0%, pH at preparation 4.2 (Table 4 no. 4), 25° C./60% RH/6 months): ◯
Insoluble materials [2, 11]: ◯
pH [2, 11]: 2.82
Insoluble materials ([2]; acetic acid/sodium acetate buffer, Captisol 10.0%, pH at preparation 4.2 (Table 4 no. 4), just after autoclave sterilization): ◯
Insoluble materials ([2]; glycine buffer, Captisol 7.5%, pH at preparation 3.8 (Table 4 no. 5), 5° C./6 months): ◯
Insoluble materials ([2]; glycine buffer, Captisol 7.5%, pH at preparation 3.8 (Table 4 no. 5), 25° C./60% RH/6 months): ◯
Insoluble materials [2, 12]: ◯
pH [2, 12]: 3.46
Insoluble materials ([2]; glycine buffer, Captisol 7.5%, pH at preparation 3.8 (Table 4 no. 5), just after autoclave sterilization): ◯
Insoluble materials ([2]; glycine buffer, Captisol 7.5%, pH at preparation 4.2 (Table 4 no. 6), 5° C./6 months): ◯
Insoluble materials ([2]; glycine buffer, Captisol 7.5%, pH at preparation 4.2 (Table 4 no. 6), 25° C./60% RH/6 months): ◯
Insoluble materials [2, 13]: ◯
pH [2, 13]: 3.73
Insoluble materials ([2]; glycine buffer, Captisol 7.5%, pH at preparation 4.2 (Table 4 no. 6), just after autoclave sterilization): ◯
Insoluble materials ([2]; glycine buffer, Captisol 10.0%, pH at preparation 3.8 (Table 4 no. 7), 5° C./6 months): ◯
Insoluble materials ([2]; glycine buffer, Captisol 10.0%, pH at preparation 3.8 (Table 4 no. 7), 25° C./60% RH/6 months): ◯
Insoluble materials [2, 14]: ◯
pH [2, 14]: 3.49
Insoluble materials ([2]; glycine buffer, Captisol 10.0%, pH at preparation 3.8 (Table 4 no. 7), just after autoclave sterilization): ◯
Insoluble materials ([2]; glycine buffer, Captisol 10.0%, pH at preparation 4.2 (Table 4 no. 8), 5° C./6 months): ◯
Insoluble materials ([2]; glycine buffer, Captisol 10.0%, pH at preparation 4.2 (Table 4 no. 8), 25° C./60% RH/6 months): ◯
Insoluble materials [2, 15]: ◯
pH [2, 15]: 3.74
Insoluble materials ([2]; glycine buffer, Captisol 10.0%, pH at preparation 4.2 (Table 4 no. 8), just after autoclave sterilization): ◯
Solubility [3]: very low
SMILES: Cc1cc(OC[C@@H](O)CN2CCN(c3ccc(Cc4ccc(F)cc4)cc3)CC2)c(C)c(C)c1N [SUN N8075, (2S)-1-(4-amino-2,3,5-trimethylphenoxy)-3-{4-[4-(4-fluorobenzyl)phenyl]-1-piperazinyl}-2-propanol dimethane sulfonate]
